Reference: ChEMBL document CHEMBL1132763, “8-Aminocyclazocine analogues: synthesis and structure-activity relationships” (Bioorg Med Chem Lett, 2000)

Key:
[1] = molecular target: Kappa-type opioid receptor (Cavia porcellus, UniProt P41144); assay: Binding affinity was determined against Opioid receptor kappa 1 obtained from guinea pig brain membranes using [3H]U-69593 as radioligand
[2] = molecular target: Mu-type opioid receptor (Cavia porcellus, UniProt P97266); assay: Binding affinity was determined against Opioid receptor mu 1 obtained from guinea pig brain membranes using [3H]DAMGO as radioligand
Sequence of Mu-type opioid receptor (P97266 whole entry): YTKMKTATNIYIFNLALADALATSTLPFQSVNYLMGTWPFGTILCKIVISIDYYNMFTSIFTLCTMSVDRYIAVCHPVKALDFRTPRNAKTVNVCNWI

[3] = Binding affinity was determined against Opioid receptor delta 1 obtained from guinea pig brain membranes using [3H]naltrindole as radioligand

Sequence of Kappa-type opioid receptor (P41144 whole entry): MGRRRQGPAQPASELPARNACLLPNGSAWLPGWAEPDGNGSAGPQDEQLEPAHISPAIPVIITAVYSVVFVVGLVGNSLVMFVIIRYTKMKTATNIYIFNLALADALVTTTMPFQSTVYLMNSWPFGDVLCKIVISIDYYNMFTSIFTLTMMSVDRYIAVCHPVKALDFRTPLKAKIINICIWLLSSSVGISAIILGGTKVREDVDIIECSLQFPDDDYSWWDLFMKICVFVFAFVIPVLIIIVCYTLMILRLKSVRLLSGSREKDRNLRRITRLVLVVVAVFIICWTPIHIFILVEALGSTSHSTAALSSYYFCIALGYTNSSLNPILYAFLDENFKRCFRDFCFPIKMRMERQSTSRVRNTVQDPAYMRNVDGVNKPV

SMILES	Ki [1] [nM]	Ki [2] [nM]	Ki [3] [nM]
C[C@@H]1[C@@H]2Cc3ccc(O)cc3[C@@]1(C)CN2CC1CC1	76	360	
CNc1ccc2c(c1)[C@@]1(C)CCN(CC3CC3)C(C2)[C@@H]1C (mixture of isomers)	8.5		
C[C@H]1C2Cc3ccc(N(C)Cc4ccccc4)cc3[C@@]1(C)CCN2CC1CC1 (mixture of isomers)	44	56	
C[C@H]1C2Cc3ccc(N(C)C)cc3[C@@]1(C)CCN2CC1CC1 (mixture of isomers)	33	82	
C[C@H]1C2Cc3ccc(NCc4ccccc4)cc3[C@@]1(C)CCN2CC1CC1 (mixture of isomers)	4.7	1.5	
C[C@H]1C2Cc3ccc(N)cc3[C@@]1(C)CCN2CC1CC1 (mixture of isomers)	4.1	9.5	
C[C@H]1C2Cc3ccc(N4CCCCC4)cc3[C@@]1(C)CCN2CC1CC1 (mixture of isomers)	300	950	
C[C@H]1C2Cc3ccc(N4CCOCC4)cc3[C@@]1(C)CCN2CC1CC1 (mixture of isomers)	560	650	
C[C@H]1C2Cc3ccc(N4CCN(C)CC4)cc3[C@@]1(C)CCN2CC1CC1 (mixture of isomers)	8.8	21	
CC(C)Nc1ccc2c(c1)[C@@]1(C)CCN(CC3CC3)C(C2)[C@@H]1C (mixture of isomers)	78	240	
CCNc1ccc2c(c1)[C@@]1(C)CCN(CC3CC3)C(C2)[C@@H]1C (mixture of isomers)	3.3	5.1	
C[C@H]1C2Cc3ccc(N4CCCC4)cc3[C@@]1(C)CCN2CC1CC1 (mixture of isomers)	410		
C[C@H]1C2Cc3ccc(NCCc4ccccc4)cc3[C@@]1(C)CCN2CC1CC1 (mixture of isomers)	11	9	
C[C@H]1[C@H]2Cc3ccc(Nc4ccccc4)cc3[C@@]1(C)CCN2CC1CC1 (racemic)	0.83	1.3	
C[C@H]1[C@H]2Cc3ccc(O)cc3[C@@]1(C)CCN2CC1CC1 (racemic)	0.18		
C[C@H]1C2Cc3ccc(N)cc3[C@@]1(C)CCN2CC1CC1 (stereo in doubt; (+)-6)	506	780	
C[C@H]1[C@H]2Cc3ccc(Nc4ccccc4)cc3[C@@]1(C)CCN2CC1CC1 (stereo in doubt; (+)-12)	27	46	
C[C@H]1C2Cc3ccc(N)cc3[C@@]1(C)CCN2CC1CC1 (stereo in doubt; (-)-5)	1.2	1.8	
C[C@H]1[C@H]2Cc3ccc(Nc4ccccc4)cc3[C@@]1(C)CCN2CC1CC1 (stereo in doubt; (-)-11)	0.54	1.1	
C[C@H]1C2Cc3ccc(NCc4ccccc4)cc3[C@@]1(C)CCN2CC1CC1 (stereo in doubt; (-)-14)	2.1	0.67	
C[C@H]1[C@H]2Cc3ccc(O)cc3[C@]1(C)CCN2CC1CC1 [CYCLAZOCINE]			0.58
